The results in this text go back to ChEMBL document CHEMBL1201862, “PubChem BioAssay data set” (2004).

Test [1] has as its target Cyclin-dependent kinase 5/CDK5 activator 1 (Homo sapiens, UniProt Q00535). Kind of test: CDK5/p35 kinase inhibitors, dose response, biochemical, cherry-picked samples, set 2 (AID 504545).
For test [2], the target named is Melanin-concentrating hormone receptor 1 (Homo sapiens, UniProt Q99705). Kind of test: Late-stage fluorescence-based counterscreen for antagonists of the G-protein coupled receptor 7 (GPR7): cell-based dose response assay to identify antagonists of the melanin-concentrating hormone receptor 1 (MCHR1). [Related pubchem assays (depositor defined):AID1861, AID1880, AID1952, AID2148, AID2251, AID2257, AID485339]. The format is functional. In general terms: Counterscreens check selectivity or assay interference.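 Also: stimulated with 30 nM MCH peptide agonist.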
Sequence of Melanin-concentrating hormone receptor 1 (Q99705 whole entry): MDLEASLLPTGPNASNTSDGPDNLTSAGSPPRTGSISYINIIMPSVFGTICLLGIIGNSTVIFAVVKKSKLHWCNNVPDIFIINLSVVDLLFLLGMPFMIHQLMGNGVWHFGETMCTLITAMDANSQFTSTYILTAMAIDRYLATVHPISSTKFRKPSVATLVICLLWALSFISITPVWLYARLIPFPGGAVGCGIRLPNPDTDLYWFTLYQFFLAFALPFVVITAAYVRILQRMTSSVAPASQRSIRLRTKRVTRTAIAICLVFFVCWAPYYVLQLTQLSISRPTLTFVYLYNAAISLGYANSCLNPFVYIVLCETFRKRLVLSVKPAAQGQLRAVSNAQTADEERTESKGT

Test [3] concerns the target Cytochrome P450 2D6 (Homo sapiens, UniProt P10635). Kind of test: qHTS Assay for Inhibitors and Substrates of Cytochrome P450 2D6. [Related pubchem assays: 410 ]. The format is ADME. The note with it: read-out: Potency. (In general: qHTS replaces the single test concentration by a dilution series.)
For test [4], the target named is X-box-binding protein 1 (Homo sapiens, UniProt P17861). It counts as functional, Cricetulus griseus.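 Also: confirmatory dose-response counter-screen serving a CHOP assay.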
Sequence of X-box-binding protein 1 (P17861 whole entry): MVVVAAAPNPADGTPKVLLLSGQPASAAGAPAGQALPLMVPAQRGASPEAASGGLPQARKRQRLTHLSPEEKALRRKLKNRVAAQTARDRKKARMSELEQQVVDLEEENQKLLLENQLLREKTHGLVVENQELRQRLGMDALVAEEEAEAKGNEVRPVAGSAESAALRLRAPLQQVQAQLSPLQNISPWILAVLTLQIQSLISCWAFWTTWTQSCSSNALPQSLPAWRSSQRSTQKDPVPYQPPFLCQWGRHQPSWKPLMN
The target of test [5] is C-C chemokine receptor type 6 (Homo sapiens, UniProt P51684). Kind of test: CCR6 receptor antagonists, dose response, cell-based, luminescent beta-arrestin readout (AID 504728). The format is functional.
Sequence of C-C chemokine receptor type 6 (P51684 whole entry): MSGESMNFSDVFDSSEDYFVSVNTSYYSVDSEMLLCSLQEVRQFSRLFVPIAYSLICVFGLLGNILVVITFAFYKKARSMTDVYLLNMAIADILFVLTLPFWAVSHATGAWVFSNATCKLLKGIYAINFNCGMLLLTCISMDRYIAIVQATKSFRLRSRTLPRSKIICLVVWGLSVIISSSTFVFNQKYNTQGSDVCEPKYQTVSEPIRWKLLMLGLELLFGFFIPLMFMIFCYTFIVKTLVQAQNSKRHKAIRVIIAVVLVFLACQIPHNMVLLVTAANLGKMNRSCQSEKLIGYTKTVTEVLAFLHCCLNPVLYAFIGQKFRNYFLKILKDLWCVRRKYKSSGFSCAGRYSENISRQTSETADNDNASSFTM
Test [6] has as its target Beta-galactosidase (Escherichia coli, UniProt Q8VNN2). Kind of test: beta-galactosidase enzyme inhibitors and activators, dose response, artefact control for CCR6 antagonist project, biochemical, E. coli enzyme, set 3 (AID 504712). The format is functional.
Test [7] concerns the target T1, Polyadenylate-binding protein 1 (Homo sapiens, UniProt P11940). Kind of test: PABP1 MLLE–PAM2 interaction inhibitors, dose response, miRNA deadenylation inhibitor project, biochemical, fluorescence polarization, Cy5-PAM2 peptide, secondary (AID 602260). The format is functional. To be noted: read-out: IC50_Mean.
The target of test [8] is T1, Polyadenylate-binding protein 1. Kind of test: PABP1 MLLE–PAM2 binding inhibitor potency, dose response, biochemical, fluorescence polarization, FITC-PAM2 peptide (AID 602259). The note with it: read-out: IC50_Mean. It counts as functional. A general note: Polarisation of emitted light reports the rotation of a fluorescent probe.
Test [9] has as its target T2, Alkaline phosphatase, tissue-nonspecific isozyme (Homo sapiens, UniProt P05186).
T2 sequence (P05186 whole entry): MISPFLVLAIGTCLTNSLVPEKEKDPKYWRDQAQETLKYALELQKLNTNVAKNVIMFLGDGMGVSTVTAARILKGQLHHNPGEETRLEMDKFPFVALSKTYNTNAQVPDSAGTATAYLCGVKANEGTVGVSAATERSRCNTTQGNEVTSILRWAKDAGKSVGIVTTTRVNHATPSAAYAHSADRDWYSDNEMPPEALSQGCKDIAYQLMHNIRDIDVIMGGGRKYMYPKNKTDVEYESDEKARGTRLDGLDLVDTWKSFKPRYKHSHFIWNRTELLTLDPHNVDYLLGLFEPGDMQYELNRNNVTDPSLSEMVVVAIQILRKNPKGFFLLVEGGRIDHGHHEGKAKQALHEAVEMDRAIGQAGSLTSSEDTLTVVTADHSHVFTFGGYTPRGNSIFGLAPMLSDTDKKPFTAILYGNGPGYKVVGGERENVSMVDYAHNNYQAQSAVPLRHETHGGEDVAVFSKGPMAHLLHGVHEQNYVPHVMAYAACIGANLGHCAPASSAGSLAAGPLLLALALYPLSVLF

The target of test [10] is T3, Tyrosine-protein phosphatase non-receptor type 7 (Homo sapiens, UniProt P35236).
T3 sequence (P35236 whole entry): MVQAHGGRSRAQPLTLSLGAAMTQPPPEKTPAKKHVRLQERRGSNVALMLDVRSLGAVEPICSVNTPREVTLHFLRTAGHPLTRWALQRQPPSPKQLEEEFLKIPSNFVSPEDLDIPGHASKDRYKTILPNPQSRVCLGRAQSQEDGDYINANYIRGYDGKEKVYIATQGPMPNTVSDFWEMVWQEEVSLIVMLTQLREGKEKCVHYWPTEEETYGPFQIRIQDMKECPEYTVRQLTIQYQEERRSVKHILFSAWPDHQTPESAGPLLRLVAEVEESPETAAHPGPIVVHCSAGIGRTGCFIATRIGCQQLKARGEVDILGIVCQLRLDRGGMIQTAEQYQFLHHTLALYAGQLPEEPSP
Kind of test: inhibitors of human HePTP phosphatase, […], biochemical, absorbance, leukemia target (AID 521). It counts as functional.

In test [11] the target is T4, Bcl-2-like protein 10 (Homo sapiens, UniProt Q9HD36).
T4 sequence (Q9HD36 whole entry): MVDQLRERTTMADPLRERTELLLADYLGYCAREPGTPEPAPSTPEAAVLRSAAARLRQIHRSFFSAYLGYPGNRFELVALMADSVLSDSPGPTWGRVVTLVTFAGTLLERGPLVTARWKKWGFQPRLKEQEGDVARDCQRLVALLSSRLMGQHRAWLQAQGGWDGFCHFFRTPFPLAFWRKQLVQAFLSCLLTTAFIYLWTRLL
Kind of test: displacers of TR3 peptide from Bcl-B, primary screen, selectivity assay for Bfl-1 inhibitor project, biochemical, fluorescence polarization, FITC-TR3 peptide (AID 748).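 Also: fluorescence polarization from a fluorescein-labelled TR3 peptide binding purified Bcl-B.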

Test [12] has as its target Induced myeloid leukemia cell differentiation protein Mcl-1 (Homo sapiens, UniProt Q07820). Kind of test: MCL1-BIM BH3 interaction inhibitors, dose response, biochemical, fluorescence polarization, BIM-BH3 peptide, 1536-well (AID 2217).
For test [13], the target named is Bcl-2-like protein 1 (Homo sapiens, UniProt Q07817). Kind of test: BCL-XL inhibitors, dose response, selectivity assay for MCL1 inhibitor project, biochemical, fluorescence polarization, 1536-well (AID 2218).
Sequence of Bcl-2-like protein 1 (Q07817 whole entry): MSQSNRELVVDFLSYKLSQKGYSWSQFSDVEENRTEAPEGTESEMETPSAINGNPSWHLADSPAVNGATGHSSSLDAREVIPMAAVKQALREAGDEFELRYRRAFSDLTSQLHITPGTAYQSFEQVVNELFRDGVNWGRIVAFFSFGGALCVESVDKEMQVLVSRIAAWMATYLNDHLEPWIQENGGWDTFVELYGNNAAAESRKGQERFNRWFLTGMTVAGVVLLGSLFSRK
Test [14] has as its target Glucose-6-phosphate 1-dehydrogenase (Homo sapiens, UniProt P11413). Kind of test: human G6PD enzyme inhibitors, dose response, selectivity assay for P. falciparum G6PD inhibitor project, biochemical, fluorescence (AID 504792). The format is functional.
For test [15], the target named is T5, Hexokinase HKDC1 (Homo sapiens, UniProt Q2TB90).
T5 sequence (Q2TB90 whole entry): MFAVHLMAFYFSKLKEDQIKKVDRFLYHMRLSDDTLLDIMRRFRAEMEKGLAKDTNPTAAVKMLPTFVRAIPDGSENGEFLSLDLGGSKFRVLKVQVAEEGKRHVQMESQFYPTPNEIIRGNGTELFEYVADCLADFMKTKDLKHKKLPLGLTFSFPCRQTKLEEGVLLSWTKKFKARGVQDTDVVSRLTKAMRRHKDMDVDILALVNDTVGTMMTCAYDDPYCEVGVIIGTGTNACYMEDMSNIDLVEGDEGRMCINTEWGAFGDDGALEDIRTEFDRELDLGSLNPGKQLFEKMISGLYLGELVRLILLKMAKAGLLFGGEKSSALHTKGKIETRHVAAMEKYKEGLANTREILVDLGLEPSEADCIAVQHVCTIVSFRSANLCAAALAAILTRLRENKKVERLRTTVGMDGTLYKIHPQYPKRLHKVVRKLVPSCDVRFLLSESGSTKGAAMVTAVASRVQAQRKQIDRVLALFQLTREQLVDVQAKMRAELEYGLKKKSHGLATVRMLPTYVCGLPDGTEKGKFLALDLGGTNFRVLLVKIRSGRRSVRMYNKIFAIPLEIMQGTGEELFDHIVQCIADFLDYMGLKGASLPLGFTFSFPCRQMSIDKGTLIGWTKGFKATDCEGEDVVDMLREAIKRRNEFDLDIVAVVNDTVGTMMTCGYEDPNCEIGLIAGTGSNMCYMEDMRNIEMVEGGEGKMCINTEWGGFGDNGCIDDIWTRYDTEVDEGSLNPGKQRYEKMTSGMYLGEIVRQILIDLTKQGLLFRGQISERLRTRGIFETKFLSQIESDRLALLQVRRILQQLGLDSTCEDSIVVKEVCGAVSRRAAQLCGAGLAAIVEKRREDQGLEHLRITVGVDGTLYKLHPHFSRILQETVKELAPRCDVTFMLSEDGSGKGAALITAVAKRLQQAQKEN
Kind of test: HKDC1 hexokinase inhibitors, dose response, biochemical, W721R variant (AID 504729). The format is functional.

Test [16] in a line: AlphaScreen signal interference compounds, dose response, artefact control for ARNT-TACC3 interaction inhibitor project, biochemical, luminescence, cherry-pick (AID 651705).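 Also: AlphaScreen bead proximity signal that flags compounds interfering with the detection technology; potency reflects signal decrease which marks the compound as an assay artifact.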 The format is functional.
For test [17], the target named is T6, Histone-lysine N-methyltransferase NSD2 (Homo sapiens, UniProt O96028).
T6 sequence (O96028 whole entry): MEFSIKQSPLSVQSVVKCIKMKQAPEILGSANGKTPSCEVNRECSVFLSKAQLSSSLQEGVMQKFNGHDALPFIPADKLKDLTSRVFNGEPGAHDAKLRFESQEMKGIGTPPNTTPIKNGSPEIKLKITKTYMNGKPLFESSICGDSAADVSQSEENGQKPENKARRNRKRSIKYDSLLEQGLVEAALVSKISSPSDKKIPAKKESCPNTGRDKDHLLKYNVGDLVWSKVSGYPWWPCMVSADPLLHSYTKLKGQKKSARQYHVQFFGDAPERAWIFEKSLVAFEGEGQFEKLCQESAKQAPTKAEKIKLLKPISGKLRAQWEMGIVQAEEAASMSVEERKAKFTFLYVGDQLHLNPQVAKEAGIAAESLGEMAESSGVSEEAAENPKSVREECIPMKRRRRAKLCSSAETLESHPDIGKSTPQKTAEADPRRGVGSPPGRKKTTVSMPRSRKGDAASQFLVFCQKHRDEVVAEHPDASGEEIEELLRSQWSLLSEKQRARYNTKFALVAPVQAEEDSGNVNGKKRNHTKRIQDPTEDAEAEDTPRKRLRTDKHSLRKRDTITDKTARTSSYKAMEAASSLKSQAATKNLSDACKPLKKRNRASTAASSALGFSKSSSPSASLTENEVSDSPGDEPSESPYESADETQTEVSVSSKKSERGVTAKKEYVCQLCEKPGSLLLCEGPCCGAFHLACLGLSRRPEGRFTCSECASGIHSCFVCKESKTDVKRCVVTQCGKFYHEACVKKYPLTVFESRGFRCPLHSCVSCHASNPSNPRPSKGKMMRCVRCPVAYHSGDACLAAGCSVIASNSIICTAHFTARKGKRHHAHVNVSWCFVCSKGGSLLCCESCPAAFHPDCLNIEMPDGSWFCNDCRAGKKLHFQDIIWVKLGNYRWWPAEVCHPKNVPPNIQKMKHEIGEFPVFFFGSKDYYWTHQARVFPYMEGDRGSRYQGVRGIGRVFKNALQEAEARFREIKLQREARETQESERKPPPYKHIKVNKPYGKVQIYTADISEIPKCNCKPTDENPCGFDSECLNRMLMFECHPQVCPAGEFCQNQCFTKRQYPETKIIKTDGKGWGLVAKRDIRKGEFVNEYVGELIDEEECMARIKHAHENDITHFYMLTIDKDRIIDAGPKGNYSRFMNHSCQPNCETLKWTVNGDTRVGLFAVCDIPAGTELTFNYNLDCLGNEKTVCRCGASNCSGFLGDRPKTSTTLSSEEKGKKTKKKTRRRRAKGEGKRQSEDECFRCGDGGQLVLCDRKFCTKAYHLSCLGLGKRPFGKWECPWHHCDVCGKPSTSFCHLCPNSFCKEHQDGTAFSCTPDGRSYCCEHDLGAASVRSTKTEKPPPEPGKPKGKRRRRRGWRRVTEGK
The format is biochemical.

Test [18] addresses T7, Tyrosyl-DNA phosphodiesterase 2 (Homo sapiens, UniProt O95551).
T7 sequence (O95551 whole entry): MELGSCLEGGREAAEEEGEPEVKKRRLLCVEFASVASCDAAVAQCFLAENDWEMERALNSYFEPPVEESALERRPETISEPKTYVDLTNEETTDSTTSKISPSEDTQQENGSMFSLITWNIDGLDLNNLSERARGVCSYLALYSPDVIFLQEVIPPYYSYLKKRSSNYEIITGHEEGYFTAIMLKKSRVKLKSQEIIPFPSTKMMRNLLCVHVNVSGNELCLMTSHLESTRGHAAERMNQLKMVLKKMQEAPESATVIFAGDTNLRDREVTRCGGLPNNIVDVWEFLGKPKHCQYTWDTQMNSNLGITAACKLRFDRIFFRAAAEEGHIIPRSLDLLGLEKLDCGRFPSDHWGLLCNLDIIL
Kind of test: human TDP2 enzyme inhibitors, dose response, biochemical, epi absorbance, IC50 (AID 743297).

Calls of active or inactive are those of the source.

Sequence of Cytochrome P450 2D6 (P10635 whole entry): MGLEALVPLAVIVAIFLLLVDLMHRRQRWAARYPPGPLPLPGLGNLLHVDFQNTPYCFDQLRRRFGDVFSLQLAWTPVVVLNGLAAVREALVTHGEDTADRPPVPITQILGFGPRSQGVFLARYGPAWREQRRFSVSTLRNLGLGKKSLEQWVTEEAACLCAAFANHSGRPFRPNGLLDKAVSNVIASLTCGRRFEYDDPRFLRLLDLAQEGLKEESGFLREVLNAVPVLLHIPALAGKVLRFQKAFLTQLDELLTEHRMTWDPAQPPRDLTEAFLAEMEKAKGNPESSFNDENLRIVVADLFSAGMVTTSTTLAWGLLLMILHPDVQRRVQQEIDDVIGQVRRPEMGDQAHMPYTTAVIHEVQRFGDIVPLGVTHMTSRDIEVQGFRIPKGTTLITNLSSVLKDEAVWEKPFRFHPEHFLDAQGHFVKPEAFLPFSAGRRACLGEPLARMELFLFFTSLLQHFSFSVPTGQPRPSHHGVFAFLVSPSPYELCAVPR
T1 sequence (P11940 whole entry): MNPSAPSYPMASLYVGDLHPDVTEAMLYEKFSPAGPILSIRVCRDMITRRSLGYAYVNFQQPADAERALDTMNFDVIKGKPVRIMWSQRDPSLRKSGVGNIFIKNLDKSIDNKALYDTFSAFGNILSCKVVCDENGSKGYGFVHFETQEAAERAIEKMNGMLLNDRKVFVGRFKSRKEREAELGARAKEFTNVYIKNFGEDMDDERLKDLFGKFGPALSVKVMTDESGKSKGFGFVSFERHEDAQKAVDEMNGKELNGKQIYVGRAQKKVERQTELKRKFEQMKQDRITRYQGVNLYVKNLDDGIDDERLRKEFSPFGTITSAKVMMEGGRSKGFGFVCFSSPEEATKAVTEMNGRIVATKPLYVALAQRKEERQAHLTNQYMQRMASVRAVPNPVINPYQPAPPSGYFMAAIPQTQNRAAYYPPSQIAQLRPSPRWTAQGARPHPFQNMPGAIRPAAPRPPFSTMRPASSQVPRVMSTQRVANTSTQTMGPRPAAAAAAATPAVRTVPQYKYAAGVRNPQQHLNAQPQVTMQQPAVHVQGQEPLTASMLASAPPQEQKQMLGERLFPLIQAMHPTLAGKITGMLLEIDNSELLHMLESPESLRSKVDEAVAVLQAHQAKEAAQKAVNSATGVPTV
Sequence of Beta-galactosidase (Q8VNN2 whole entry): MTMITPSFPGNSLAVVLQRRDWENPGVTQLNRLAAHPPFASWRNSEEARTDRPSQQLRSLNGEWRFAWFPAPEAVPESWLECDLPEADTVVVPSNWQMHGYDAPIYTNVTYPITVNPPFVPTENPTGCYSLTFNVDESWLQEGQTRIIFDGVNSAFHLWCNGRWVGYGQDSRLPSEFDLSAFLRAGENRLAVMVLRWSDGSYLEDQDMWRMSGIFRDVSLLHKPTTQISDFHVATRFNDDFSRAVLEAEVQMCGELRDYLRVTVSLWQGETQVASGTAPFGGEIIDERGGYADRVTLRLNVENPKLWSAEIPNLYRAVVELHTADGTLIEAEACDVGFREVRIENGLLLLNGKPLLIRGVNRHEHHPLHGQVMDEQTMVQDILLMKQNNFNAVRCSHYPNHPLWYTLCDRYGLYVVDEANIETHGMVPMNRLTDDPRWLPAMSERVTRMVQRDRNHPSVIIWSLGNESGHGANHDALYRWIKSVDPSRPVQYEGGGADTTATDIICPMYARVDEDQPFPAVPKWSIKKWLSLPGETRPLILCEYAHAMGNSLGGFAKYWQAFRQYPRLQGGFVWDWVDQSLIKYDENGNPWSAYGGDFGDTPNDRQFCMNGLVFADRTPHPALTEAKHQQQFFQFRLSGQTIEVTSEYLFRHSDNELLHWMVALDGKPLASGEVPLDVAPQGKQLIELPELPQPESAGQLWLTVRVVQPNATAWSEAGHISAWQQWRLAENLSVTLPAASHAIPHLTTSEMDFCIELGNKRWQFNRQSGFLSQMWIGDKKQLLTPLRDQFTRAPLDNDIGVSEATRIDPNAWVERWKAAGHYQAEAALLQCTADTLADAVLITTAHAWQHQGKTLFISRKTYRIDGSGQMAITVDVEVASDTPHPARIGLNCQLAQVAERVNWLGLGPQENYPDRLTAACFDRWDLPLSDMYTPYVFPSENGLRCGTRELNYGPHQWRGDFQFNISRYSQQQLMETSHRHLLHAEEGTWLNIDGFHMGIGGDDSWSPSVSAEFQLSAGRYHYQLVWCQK
Sequence of Cyclin-dependent kinase 5/CDK5 activator 1 (Q00535 whole entry): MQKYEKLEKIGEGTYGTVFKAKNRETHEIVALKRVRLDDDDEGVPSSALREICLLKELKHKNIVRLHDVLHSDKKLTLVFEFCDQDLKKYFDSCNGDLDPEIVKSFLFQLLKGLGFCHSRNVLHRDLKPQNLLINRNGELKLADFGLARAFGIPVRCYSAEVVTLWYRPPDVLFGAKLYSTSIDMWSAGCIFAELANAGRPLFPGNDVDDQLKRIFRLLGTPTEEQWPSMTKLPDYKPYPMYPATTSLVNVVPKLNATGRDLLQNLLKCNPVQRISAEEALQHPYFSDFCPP
Sequence of Cyclin-dependent kinase 5/CDK5 activator 1 (Q15078 whole entry, further chain): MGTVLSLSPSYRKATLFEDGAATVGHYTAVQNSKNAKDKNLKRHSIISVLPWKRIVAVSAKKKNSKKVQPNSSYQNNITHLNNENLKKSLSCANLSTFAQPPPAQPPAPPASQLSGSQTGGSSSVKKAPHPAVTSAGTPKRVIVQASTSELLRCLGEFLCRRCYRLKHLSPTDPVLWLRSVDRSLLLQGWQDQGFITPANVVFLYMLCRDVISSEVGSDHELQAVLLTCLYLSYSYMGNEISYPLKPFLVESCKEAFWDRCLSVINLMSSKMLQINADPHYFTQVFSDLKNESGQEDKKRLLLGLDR
Sequence of Induced myeloid leukemia cell differentiation protein Mcl-1 (Q07820 whole entry): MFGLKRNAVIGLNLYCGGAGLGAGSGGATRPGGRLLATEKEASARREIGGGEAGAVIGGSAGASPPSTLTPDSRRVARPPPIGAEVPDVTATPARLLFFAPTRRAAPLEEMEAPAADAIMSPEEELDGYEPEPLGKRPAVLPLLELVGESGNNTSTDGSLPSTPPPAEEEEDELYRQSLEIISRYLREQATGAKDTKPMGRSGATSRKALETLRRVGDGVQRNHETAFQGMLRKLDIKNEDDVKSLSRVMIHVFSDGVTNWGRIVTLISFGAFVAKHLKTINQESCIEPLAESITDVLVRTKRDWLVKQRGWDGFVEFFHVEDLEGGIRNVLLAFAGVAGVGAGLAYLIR
Sequence of Glucose-6-phosphate 1-dehydrogenase (P11413 whole entry): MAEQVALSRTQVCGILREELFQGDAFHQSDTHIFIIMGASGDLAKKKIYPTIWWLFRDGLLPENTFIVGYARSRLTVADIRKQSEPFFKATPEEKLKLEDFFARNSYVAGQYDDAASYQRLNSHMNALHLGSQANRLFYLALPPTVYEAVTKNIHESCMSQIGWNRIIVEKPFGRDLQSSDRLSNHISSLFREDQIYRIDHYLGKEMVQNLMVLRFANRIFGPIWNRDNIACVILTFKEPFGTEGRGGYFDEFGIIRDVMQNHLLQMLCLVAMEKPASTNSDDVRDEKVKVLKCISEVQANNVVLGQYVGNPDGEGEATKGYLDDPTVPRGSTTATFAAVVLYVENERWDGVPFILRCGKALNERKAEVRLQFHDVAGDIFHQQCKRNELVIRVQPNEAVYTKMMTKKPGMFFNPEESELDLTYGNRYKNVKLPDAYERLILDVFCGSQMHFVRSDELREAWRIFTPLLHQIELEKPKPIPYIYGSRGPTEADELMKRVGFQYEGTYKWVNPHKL

For the compound `COc1ccc(C(=O)c2sc(Nc3ccccc3)nc2N)cc1`, the AC50 in test [1] is 16.8 µM (active).
Turning to `COc1ccc(Oc2c(Cl)cnn(-c3cccc(C)c3)c2=O)cc1`, the IC50 in test [2] is 5.4 µM (active).
Turning to `O=c1cccc2n1C[C@@H]1C[C@H]2CN2CCCC[C@H]12`, the AC50 in [3] was 25.1 µM (inconclusive).
Regarding `O=C(Nc1ccccc1C(F)(F)F)c1cc(-c2ccc(O)cc2)on1`, the “Absolute IC50 (XBP1)” value in test [4] was 10 µM.
`CCCCC(=O)NC(=S)Nc1ccccc1C(=O)Nc1ccccc1`: the IC50 was > 66.6 µM (inactive) in test [5], > 66.6 µM (inactive) in test [6], > 66 µM (inactive) in test [7] and > 66 µM (inactive) in test [8].
In the case of `CN1CCc2cc3c(cc2[C@@H]1[C@H]1OC(=O)c2c1ccc1c2OCO1)OCO3`, the AC50 in test [3] was 10 µM (inconclusive).
As for `COc1ccc(Oc2c(Cl)cnn(-c3cccc(Cl)c3)c2=O)cc1`, the IC50 in test [2] was 10.5 µM (inactive).
For orientation: EC50 means the concentration giving half of the maximal effect. Low readings indicate a more potent agent, high ones a less potent agent. Turning to `COc1ccc(-n2c(=O)c3ccccc3n(CC(=O)NC3CCCCC3)c2=O)cc1OC`, the concentration for a half-maximal effect (EC50) in test [9] is given as > 100 µM (not active).
In the case of `CCn1c(SC(C)C(=O)O)nc2sc3c(c2c1=O)CCC3` (stereo unspecified), the IC50 is 1.69 µM (active) in test [10], 7.65 µM (active) in test [11], 16.8 µM (not active) in test [12] and 90.1 µM (not active) in test [13].
For the compound `CC(N=C1C=C(O)c2cccnc2C1=O)C(O)c1ccccc1` (stereo unspecified), the IC50 is 33.2 µM (inactive) in test [14], 18.5 µM (active) in test [15] and 5.45 µM (active) in [18]. Moreover, the AC50 is 111 µM (active) in test [16] and 0.754 µM (active) in test [17].
`OCCN(CCO)Cc1nc(O)c2c(n1)-c1ccccc1CC21CCCCC1`: the half-maximal effective concentration (EC50) in test [9] is recorded as 76.4 µM (not active).
